Experimental data published in US5340925A, “Normal human growth regulatory receptor for TGF-β” (Oncogen, priority 1992, dated 1994).
Like-named read-outs stand apart in the source and are kept apart here.

Columns and labels:
[1] = system: TGF-β receptor on HEPM cells; experiment: TGF-β receptor down-regulation in TGF-β1 treated HEPM cells, assessed by radioreceptor assay; type: cell-based, human; details: for Kd: HEPM cells treated 18 hours with 100 pM TGF-β1
Description: (§1) HEPM cells were grown to confluence (1×10^5 cells/well) in 24-well Costar tissue culture plates. Prior to the binding assay, cells were pre-incubated in serum-free growth medium at 37° C. for 4 hours to allow for the dissociation of TGF-β from occupied cells surface receptors. The resulting monolayers were washed 2 times in binding buffer (Dulbecco's MEM+0.1% BSA+25 mM HEPES). 250 μl of binding buffer containing 0.5 μg/ml [^125 I]-iodoTGF-β1, (specific activity of 100 μCi/μg) together with increasing amounts of unlabeled TGF-β1 were added to duplicate wells. Steady state binding was carried out at 4° C. for 3 hours. After incubation cells were washed 3 times with cold binding buffer and solubilized in 200 μl of Triton solution (20 mM HEPES, 1% Triton X-100, 10% glycerol, 0.01% BSA, pH 7.4). Radioactivity was determined using a gamma spectrometer. Non-specific binding was determined in the presence of a 1,000-fold molar excess unlabeled TGF-β1.
Briefly, HEPM cells were treated with 100pM TGF-β1, for 18 hours, washed with serum-free medium, and incubated in fresh serum-free medium for 60 minutes to allow for the disassociation of residually bound TGF-β1. The radioreceptor assay described in Materials and Methods was used to assess the extent of receptor down-regulation in the treated cells relative to untreated control cells. […] The combined total receptor down-regulation observed was 57%.

[2] = system: HEPM cell-surface receptors for TGF-β; experiment: Radioreceptor assay: [125I]-iodo-TGF-β1 in competition with unlabeled TGF-β1, Scatchard analysis; type: binding, human; details: comparison of growth stimulation and receptor occupancy, FIG. 6
Description: as §1
(§2) The radioreceptor assay described in Materials and Methods was used to characterize the affinity and number of cell-surface receptors for TGF-β on HEPM cells. Specific binding of [^125 I]-iodo-TGF-βin these assays was 20% of the total radioligand present. […] Half-maximal displacement of radioligand occurred at 100 pM (2.6 ng/ml) unlabeled TGF-β1. Competitive binding data were plotted according to the method of Scatchard (Scatchard, et al., 1947, Ann. NY Acad Sci 51:660-672) and the results are presented in FIG. 5. A distinctly curvilinear isotherm was obtained indicating the presence of at least two classes of binding sites on HEPM cells. […] Quantitative analysis determined that HEPM cells contain a total of 287,000 TGF-β receptors per cell (55,400 high affinity and 231,600 low affinity sites).

[3] = target: T1, HEPM cell-surface receptors for TGF-β (Homo sapiens, UniProt Q03167); experiment: as above; type: binding; details: for Kd: untreated HEPM cells, Scatchard two-site model
T1 construct: endogenous in cells; host or cells: HEPM (human embryonic palatal mesenchyme) cells, intact monolayers
T1 sequence (Q03167 21-851): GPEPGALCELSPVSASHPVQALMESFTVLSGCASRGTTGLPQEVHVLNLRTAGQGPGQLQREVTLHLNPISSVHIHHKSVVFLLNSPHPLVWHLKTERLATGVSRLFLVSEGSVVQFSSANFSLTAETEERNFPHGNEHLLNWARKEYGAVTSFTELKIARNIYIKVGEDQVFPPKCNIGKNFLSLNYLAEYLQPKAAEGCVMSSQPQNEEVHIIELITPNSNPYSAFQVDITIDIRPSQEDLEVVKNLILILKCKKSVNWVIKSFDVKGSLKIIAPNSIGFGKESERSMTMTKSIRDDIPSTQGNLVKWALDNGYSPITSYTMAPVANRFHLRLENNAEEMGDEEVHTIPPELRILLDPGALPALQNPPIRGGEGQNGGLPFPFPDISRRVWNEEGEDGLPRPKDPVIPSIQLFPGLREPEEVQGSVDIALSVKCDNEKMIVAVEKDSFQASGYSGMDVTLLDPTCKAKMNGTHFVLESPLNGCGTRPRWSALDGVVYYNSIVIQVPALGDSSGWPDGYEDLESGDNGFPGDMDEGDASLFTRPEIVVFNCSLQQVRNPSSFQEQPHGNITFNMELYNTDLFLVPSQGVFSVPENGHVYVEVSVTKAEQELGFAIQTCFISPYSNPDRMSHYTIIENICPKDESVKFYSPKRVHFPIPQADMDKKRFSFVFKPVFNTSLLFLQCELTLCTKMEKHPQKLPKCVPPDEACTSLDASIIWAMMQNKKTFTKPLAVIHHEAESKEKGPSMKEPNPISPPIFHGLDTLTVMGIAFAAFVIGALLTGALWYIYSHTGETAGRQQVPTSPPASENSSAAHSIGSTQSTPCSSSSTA
Description: as §1, §2

HEPM cells = experiment: Growth stimulation in monolayer monitored by cell counting; type: cell-based, human; details: 50 pM TGF-β1, 96 hours post-treatment
Description: FIG. 2 Bioactivity of TGF-β on HEPM cells: cell proliferation. Cell counts were taken at 24 hour intervals until 120 hours post treatment. The data is presented as the number of cells per well vs incubation time (hours). By 96 hours, cultures treated with 50 pM TGF-β1, ( ) had reached a cell density twice that of untreated cultures ( ).
Alternatively, growth stimulation in monolayer was monitored by cell counting. Cell monolayers were washed with PBS and then treated with 100 μl 0.25% trypsin solution at 37° C. until cells became detached from the culture surface. Fetal bovine serum (100 μl) was then added to each well to inhibit further action by trypsin. The resulting cell suspension was counted by the standard hemacytometer method. The viability of cells, greater than 98% in these examples, was determined by trypan blue dye-exclusion.

[4] = 100 pM TGF-β1, 18 hours, vs control cells

TGF-β1: Transforming growth factor-Beta type 1; two identical disulfide linked subunits having molecular weights of 13,000; recombinant material used
high affinity binding sites in treated cells ([1]; 100 pM TGF-β1, 18 hours): 14,000 sites/cell
low affinity binding sites in treated cells ([1]; 100 pM TGF-β1, 18 hours): 108,800 sites/cell
combined total receptor down-regulation [1, 4]: 57%
down-regulation of the high affinity binding sites [1, 4]: 74%
down-regulation of the low affinity binding sites [1, 4]: 53%
Kd ([1]; read-out: kd, high affinity binding sites): 0.04 nM
Kd ([1]; read-out: kd, low affinity binding sites): 0.974 nM
receptors occupied when full biological response is obtained [2]: 20%
half-maximal displacement of radioligand ([3]; unlabeled TGF-β1 vs [125I]-iodo-TGF-β1, 4° C., 3 hours): 2.6 ng/mL
IC50 ([3]; unlabeled TGF-β1 vs [125I]-iodo-TGF-β1, 4° C., 3 hours, read-out: half-maximal displacement of radioligand / half-maximal receptor occupancy): 0.1 nM
Kd ([3]; read-out: kd, high-affinity (low capacity) site): 0.058 nM
Kd ([3]; read-out: kd, low-affinity (high capacity) site): 0.898 nM
cell density compared with untreated cultures (HEPM cells): twice
